Laboratory results taken from BindingDB's records for doi:10.1016/j.bmc.2020.115644 (Umass Medical School, 2020).
Counter-ions that a name gives are not always drawn.

Legend:
NAD(+) hydrolase SARM1 [1] = target: T1, NAD(+) hydrolase SARM1 (Homo sapiens, UniProt Q6SZW1); assay: Inhibition of recombinant human SARM1 TIR domain (561 to 724 residues) expressed in Escherichia coli C43 (DE3) cells lysates using ENAD as substrate preincubated for 20 mins followed by ENAD addition and measured at 15 sec interval for 15 mins
T1 sequence (Q6SZW1 whole entry): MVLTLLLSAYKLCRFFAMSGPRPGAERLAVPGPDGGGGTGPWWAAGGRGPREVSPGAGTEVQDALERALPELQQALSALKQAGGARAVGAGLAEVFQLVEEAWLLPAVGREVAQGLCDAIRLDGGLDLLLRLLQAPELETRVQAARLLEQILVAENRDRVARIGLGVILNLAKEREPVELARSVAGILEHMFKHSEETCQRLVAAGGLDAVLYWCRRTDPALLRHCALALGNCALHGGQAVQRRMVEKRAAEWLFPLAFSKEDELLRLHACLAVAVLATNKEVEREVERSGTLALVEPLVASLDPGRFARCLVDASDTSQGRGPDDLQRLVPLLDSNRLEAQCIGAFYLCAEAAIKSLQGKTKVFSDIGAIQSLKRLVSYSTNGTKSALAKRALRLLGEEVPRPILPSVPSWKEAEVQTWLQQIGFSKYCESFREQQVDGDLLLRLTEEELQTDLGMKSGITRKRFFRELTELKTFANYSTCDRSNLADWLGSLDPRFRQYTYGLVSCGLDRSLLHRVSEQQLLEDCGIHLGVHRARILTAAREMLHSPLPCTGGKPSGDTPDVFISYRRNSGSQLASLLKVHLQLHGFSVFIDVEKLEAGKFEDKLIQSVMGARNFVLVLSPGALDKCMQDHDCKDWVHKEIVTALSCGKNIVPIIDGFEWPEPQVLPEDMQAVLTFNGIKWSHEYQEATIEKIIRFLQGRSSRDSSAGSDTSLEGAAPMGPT

NAD(+) hydrolase SARM1 [2] = target: T1, NAD(+) hydrolase SARM1; assay: Noncompetitive inhibition of recombinant human SARM1 TIR domain (561 to 724 residues) expressed in Escherichia coli C43 (DE3) cells lysates assessed as EADPR formation using ENAD as substrate preincubated for 20 mins followed by ENAD addition and measured at 15 sec interval for 1 hr

IC50 (NAD(+) hydrolase SARM1 [1]) | Ki (NAD(+) hydrolase SARM1 [2]) | SMILES
145 µM | 280 µM | C[C@H]1c2cccc(O)c2C(=O)C2=C(O)[C@]3(O)C(=O)C(C(N)=O)=C(O)[C@@H](N(C)C)[C@@H]3[C@@H](O)[C@@H]21 [DOXYCYCLINE HYDROCHLORIDE]
145 µM |  | Nc1ccc(/N=N/c2ccccc2)c(N)n1 [NC 150]
